The values below come from patent publication US20050165057A1, “Novel piperidine derivative” (priority 2002, published 2005).

The subject of experiment [1] is ACAT. Nature of the experiment: Assay of ACAT inhibitory activity using Caco-2 cells. In kind it is cell-based, human. To be noted: concentration of compound: 500 nM. How it is done:
1. Assay of ACAT Inhibitory Activity Using Caco-2 Cells Derived from Human Colon Adenocarcinoma:
The measurement of ACAT inhibitory activity using Caco-2 cells was carried out by a modified method of that disclosed in the literature (J. Lipid. Research, 28, 1057-1066, 1987, Jpn. J. Pharmacol., 68, 191-199, 1995), using radioactive [1-^3H]oleic acid as a substrate, and the enzymatic activity was calculated from the radioactivity of the resultant labeled cholesterolyl oleate.

Experiment [2] has as its target T1, ACAT (Rattus norvegicus, UniProt O70536).
T1 construct: The rat peritoneal-derived macrophage was prepared according to the method disclosed in the literature; endogenous in cells; host or cells: rat peritoneal macrophages (primary cells)
T1 sequence (O70536 1-545): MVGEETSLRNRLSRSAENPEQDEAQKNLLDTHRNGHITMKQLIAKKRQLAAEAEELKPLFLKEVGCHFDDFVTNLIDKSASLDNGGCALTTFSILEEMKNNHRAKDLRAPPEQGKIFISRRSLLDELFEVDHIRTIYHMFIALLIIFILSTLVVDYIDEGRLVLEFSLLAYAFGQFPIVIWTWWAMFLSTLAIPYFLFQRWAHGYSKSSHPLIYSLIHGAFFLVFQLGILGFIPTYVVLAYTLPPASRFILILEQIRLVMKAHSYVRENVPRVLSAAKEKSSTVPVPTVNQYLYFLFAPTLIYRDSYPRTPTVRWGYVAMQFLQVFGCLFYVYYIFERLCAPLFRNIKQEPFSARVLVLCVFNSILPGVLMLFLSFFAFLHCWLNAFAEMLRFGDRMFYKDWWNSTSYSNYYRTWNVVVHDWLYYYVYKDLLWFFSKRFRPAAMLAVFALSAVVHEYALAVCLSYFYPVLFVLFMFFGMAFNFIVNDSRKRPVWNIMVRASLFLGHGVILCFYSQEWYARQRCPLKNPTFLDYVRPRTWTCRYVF
Nature of the experiment: Assay of ACAT inhibitory activity in a macrophage derived from rat peritoneal cavity. To be noted: concentration of compound: 500 nM. In kind it is cell-based. As for the experimental part:
2. Assay of ACAT Inhibitory Activity in a Macrophage Derived from Rat Peritoneal Cavity:
The rat peritoneal-derived macrophage was prepared according to the method disclosed in the literature: Biochimica et Biophysica Acta, 1126, 73-80, 1992. The ACAT activity was determined by a modified method of the method disclosed in the above literature: Biochimica et Biophysica Acta, 1126, 73-80, 1992, using radioactive [9, 10-^3H]oleic acid and exogenous cholesterol contained in the liposome which was re-constituted according to the method disclosed in the literature: Biochimica et Biophysica Acta, 1213, 127-134, 1994, and calculated from the radioactivity of the labeled cholesterolyl oleate.

Structures are written as SMILES.

For `CC(C)c1cc(N)cc(C(C)C)c1NC(=O)NCC1(c2cccc(OCCCNC(=O)CC(F)(F)F)c2)CCN(c2ccccc2)CC1` [Example 11-1, N-{(1-phenyl-4-{3-[3-(2,2,2-trifluoroethyl)carbonylaminopropoxy]phenyl}piperidin-4-yl)methyl}-N′-(4-amino-2,6-diisopropylphenyl)urea], the “ACAT inhibitory rate (%)” value in the experiment on ACAT [1] came out at 57%; at ACAT [2], 99%.
In the same order, the values of `COc1cccc(C2(CNC(=O)Nc3c(C(C)C)cc(N)cc3C(C)C)CCN(c3cccc(C)c3)CC2)c1` [Example 12-2, N-{[1-(3-methylphenyl)-4-(3-methoxyphenyl)piperidin-4-yl]methyl}-N′-(4-amino-2,6-diisopropylphenyl)urea] are 59% and 99%.
In the same order, the values of `COc1cccc(C2(CNC(=O)Nc3c(C(C)C)cc(N)cc3C(C)C)CCN(c3cccc(F)c3)CC2)c1` [Example 12-3, N-{[1-(3-fluorophenyl)-4-(3-methoxyphenyl)piperidin-4-yl]methyl}-N′-(4-amino-2,6-diisopropylphenyl)urea] are 63% and 99%.
